# Several values for one entry are separate records, joined by “and”; a condition that tells them apart may be missing. Equal values may be shown once.
# Molecular target: T1, PNCK Nano-luciferase fusion (Homo sapiens, UniProt Q6P2M8)
# T1 construct: host or cells: HEK293
# Assay: NanoBRET Target Engagement Intracellular Kinase Assay, cell-based PNCK binding screen and dose response in HEK293 cells
# Conditions: for IC50: 8-point concentration-response; for IC50 / inhibition at 1 µM / inhibition at 10 µM: HEK293; for inhibition at 1 µM: compound 1uM, read-out: Avg. Normalized % Inhibition, 1uM, Nanobret; for inhibition at 1 µM / inhibition at 10 µM: K10 tracer 1uM, normalized to staurosporine and DMSO; for inhibition at 10 µM: compound 10uM, read-out: Avg. Normalized % Inhibition, 10uM, Nanobret; for cell permeability: stated on testing in NanoBRET assay; for NanoBRET binding, result in words: cell-based screen / comparison with parent hit
# Description: The NanoBRET Target Engagement Intracellular Kinase Assay (Promega N2520) is a cell-based binding screen which reads loss of BRET signal as a result of target binding. A PNCK Nano-luciferase fusion vector plasmid was generated custom by Promega. The K-10 tracer was used for the assay, as determined by Promega. The plasmid was maxiprepped by Genewiz for use in all future assays. HEK293 cells were seeded in a T175 flask in DMEM with 10% FBS. The following day, cells were counted to 10,000, resuspended in assay media (Optimem with no phenol red, 1% FBS). Plasmid and transfection reagent (Fugene HD, Promega E2311) were added to the mixture and cells were seeded in a white 96-well plate. After 20–24 hours, media was changed, and the assay proceeded according to protocol. K10 tracer was added at the recommended concentration of 1uM while compounds were initially screened at both 10uM and 1uM. Cells incubated with compound at 37 degrees Celsius for a maximum of 2 hours before the plate was read using Clariostar Plus. Data was normalized to Staurosporine and DMSO controls. For compounds selected for further analysis, dose response curves were generated using the same testing protocol but at 8 different concentrations: 24uM, 12uM, 6uM, 3uM, 1.5uM, .75uM 0.375uM and 0.1875uM. UM195 was tested with concentrations from 12uM to 0.09375. Similarly, compounds from the analog by catalog analysis were tested at concentrations from 24uM to 0.1875uM.
# Data analysis of ADP Kinase Glo results were carried out per the manufacturer’s instructions. Results were represented as a percent decrease in activity. Data was normalized to staurosporine (positive control) as 100% decrease and DMSO (negative control) as a 0% decrease. Data for NanoBRET was analyzed by dividing the acceptor by the donor emission and […] to obtain raw millibret units (mBU). Background was subtracted using control emission averages. Data was normalized to positive and negative controls of staurosporine and DMSO. Concentration-response curves were plotted in GraphPad Prism 8 and IC50s were extrapolated using non-linear fit with concentrations transformed to logarithmic scale. Baseline was held constant and represented the average mBU of staurosporine controls while the top was constrained to represent the average mBU of DMSO controls. Error bars on dose-response curves represent standard deviations.
# T1 sequence (Q6P2M8 whole entry, the tested form may be a part): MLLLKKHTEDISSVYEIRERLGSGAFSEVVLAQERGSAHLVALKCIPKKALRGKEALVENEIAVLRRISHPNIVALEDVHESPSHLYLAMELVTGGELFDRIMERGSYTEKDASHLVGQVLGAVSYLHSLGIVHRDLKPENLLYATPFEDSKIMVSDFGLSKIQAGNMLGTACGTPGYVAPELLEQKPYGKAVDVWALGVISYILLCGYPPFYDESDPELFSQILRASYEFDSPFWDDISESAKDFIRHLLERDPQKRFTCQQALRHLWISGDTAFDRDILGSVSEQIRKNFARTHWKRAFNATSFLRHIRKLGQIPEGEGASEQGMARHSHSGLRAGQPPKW
SMILES,inhibition at 1 µM,inhibition at 10 µM,further results
COc1ccccc1N(CCC(N)=O)C(=O)COc1ccc2c(c1)CCCC2=O [UM_249],22.8%,41.8%,–
O=C(CSc1ncccn1)c1ccc(O)c(O)c1 [UM_243],–,–,cell permeability: not cell permeable
O=C(O)c1cccnc1SCCCN1C(=O)c2cccc3cccc(c23)C1=O [UM_216],2.34%,25.4%,–
COc1cccc(-c2nc3c(c(=O)[nH]2)Cc2cc(Br)ccc2O3)c1O [UM_229],27.5%,54%,–
O=C1CCCN1CC(O)COc1ccc2c3c(c(=O)oc2c1)CCCCC3 (centres unmarked) [UM_257],15.2%,48.6%,–
O=c1[nH]c(CSc2ccc3ccccc3n2)nc2ccccc12 [UM_281],26.6%,54.5%,–
O=C1CCCc2c1cnc1nc(N3CCCCC3)nc(O)c21 [UM_232],1.49%,10.9%,–
O=C(O)CCc1nnc(SCc2c(Cl)cccc2Cl)[nH]c1=O [UM_193],0%,0%,cell permeability: not cell permeable
N#Cc1cnc(Sc2nnc(-c3ccccc3)o2)cn1 [UM_253],4.54%,55.6%,–
Cc1nc2c3ccccc3nc(SCCCn3c(=O)[nH]c4ccccc43)n2n1 [UM_277],37.1%,68.6%,IC50: 16.1 µM
O=C(O)c1ccc(-c2nc(O)c3c4c(sc3n2)CCCC4)cc1 [UM_233],7.37%,14.2%,–
O=C(O)c1cccc(NS(=O)(=O)/C=C/c2ccc(Cl)cc2)c1 [UM_235],4.02%,10.3%,–
O=c1[nH]c(CSc2ccccc2)nc2ccc(Cl)cc12 [UM_279],5.1%,23.4%,"NanoBRET binding, result in words: did not demonstrate significantly improved binding"
O=c1[nH]c(CSc2nc3ccccc3o2)nc2ccc(Cl)cc12 [UM_280],33.4%,74.7%,"IC50: 14.9 µM; NanoBRET binding, result in words: did not demonstrate significantly improved binding"
COc1ccc2[nH]c(SCc3cc(=O)n4c(C)cccc4n3)nc2c1 [UM_196],3.82%,30.5%,–
c1ccc2c(-c3nnc(Sc4cnccn4)o3)cccc2c1 [UM_265],21.5%,63.5%,–
O=c1[nH]c(CSc2ncccn2)nc2ccc(Cl)cc12 [UM_278],10.9%,23.6%,"NanoBRET binding, result in words: did not demonstrate significantly improved binding"
CCn1c(SCCCn2c(=O)[nH]c3ccccc32)n[nH]c1=O [UM_274],34.2%,71.8%,IC50: 10.3 µM
"O=c1[nH]c(CSc2ccc3ccccc3n2)nc2ccc(Cl)cc12 [UM_210, 6-chloro-2-[(quinolin-2-ylsulfanyl)methyl]-3,4-dihydroquinazolin-4-one]",41.2%,98.5%,"IC50: 8.09 µM; Dose-Response Curve Data (NanoBRET signal, replicates) (Concentration 1.20E-05 M): 7.35 and 5.53 and 7.51 and 6.90; Dose-Response Curve Data (NanoBRET signal, replicates) (Concentration 1.50E-06 M): 8.14 and 8.22 and 8.79 and 8.09; Dose-Response Curve Data (NanoBRET signal, replicates) (Concentration 1.88E-07 M): 8.61 and 9.43 and 9.50 and 8.74; Dose-Response Curve Data (NanoBRET signal, replicates) (Concentration 2.40E-05 M): 4.79 and 5.28 and 5.02 and 4.59; Dose-Response Curve Data (NanoBRET signal, replicates) (Concentration 3.00E-06 M): 7.91 and 7.57 and 6.47 and 7.46; Dose-Response Curve Data (NanoBRET signal, replicates) (Concentration 3.75E-07 M): 9.79 and 9.21 and 8.99 and 8.71; Dose-Response Curve Data (NanoBRET signal, replicates) (Concentration 6.00E-06 M): 7.06 and 7.86 and 6.98 and 6.97; Dose-Response Curve Data (NanoBRET signal, replicates) (Concentration 7.50E-07 M): 8.34 and 8.97 and 8.05 and 9.09"

# Second part, led by results:
inhibition at 1 µM,inhibition at 10 µM,SMILES,further results
35.2%,97.6%,"C[C@@H]1CCc2c(sc(NC(=O)c3ccc(Cl)s3)c2C(N)=O)C1 [UM_228, (6R)-2-(5-chlorothiophene-2-amido)-6-methyl-4,5,6,7-tetrahydro-1-benzothiophene-3-carboxamide]","IC50: 8.32 µM; Dose-Response Curve Data (NanoBRET signal, replicates) (Concentration 1.20E-05 M): 6.59 and 6.36 and 6.71; Dose-Response Curve Data (NanoBRET signal, replicates) (Concentration 1.50E-06 M): 8.32 and 8.64 and 8.50; Dose-Response Curve Data (NanoBRET signal, replicates) (Concentration 1.88E-07 M): 8.44 and 8.73 and 8.35; Dose-Response Curve Data (NanoBRET signal, replicates) (Concentration 2.40E-05 M): 5.75 and 5.50 and 5.61; Dose-Response Curve Data (NanoBRET signal, replicates) (Concentration 3.00E-06 M): 8.33 and 8.45 and 7.70; Dose-Response Curve Data (NanoBRET signal, replicates) (Concentration 3.75E-07 M): 8.86 and 8.18 and 8.92; Dose-Response Curve Data (NanoBRET signal, replicates) (Concentration 6.00E-06 M): 7.13 and 7.60 and 7.05; Dose-Response Curve Data (NanoBRET signal, replicates) (Concentration 7.50E-07 M): 8.73 and 8.94 and 8.43"
21.2%,55.1%,COc1cccc(-n2nnc3c(=O)n(CC(=O)N4CCCC4)cnc32)c1 [UM_230],–
4.8%,31.2%,CC1(C)CCc2c(sc(NC(=O)c3ccc(Cl)s3)c2C(N)=O)C1 [UM_260],–
10.5%,49.3%,Cc1cc(C)n2nc(SCc3nc(-c4ccccc4)no3)nc2n1 [UM_217],–
0%,19.4%,Cc1noc2ncnc(N3CCC(n4c(C)nc5ccccc54)CC3)c12 [UM_215],–
1.23%,27%,Cc1ccc2[nH]c(SCc3cc(=O)n4ccccc4n3)nc2c1 [UM_197],–
17%,44.6%,Cn1c(=O)n(C(N)=O)c(=O)c2c1nc1n2CCCN1c1ccc(F)cc1 [UM_223],–
1.43%,27.6%,Cc1nc(N2CCC[C@H]3C(=O)NC[C@H]32)c2c(C)c(C)sc2n1 [UM_194],–
63.2%,91.8%,CC1CCc2c(sc(NC(=O)CSc3ncnc4[nH]cnc34)c2C(N)=O)C1 (centres unmarked) [UM_251],"IC50: 2.53 µM; Dose-Response Curve Data (NanoBRET signal, replicates) (Concentration 1.20E-05 M): 4.13 and 4.23 and 4.54 and 4.39; Dose-Response Curve Data (NanoBRET signal, replicates) (Concentration 1.50E-06 M): 6.59 and 7.07 and 6.74 and 7.03; Dose-Response Curve Data (NanoBRET signal, replicates) (Concentration 1.88E-07 M): 7.33 and 7.01 and 6.90 and 7.62; Dose-Response Curve Data (NanoBRET signal, replicates) (Concentration 2.40E-05 M): 4.23 and 3.92 and 4.54 and 4.39; Dose-Response Curve Data (NanoBRET signal, replicates) (Concentration 3.00E-06 M): 6.43 and 6.10 and 6.50 and 6.24; Dose-Response Curve Data (NanoBRET signal, replicates) (Concentration 3.75E-07 M): 7.22 and 7.21 and 7.00 and 7.10; Dose-Response Curve Data (NanoBRET signal, replicates) (Concentration 6.00E-06 M): 4.64 and 5.22 and 4.89 and 5.32; Dose-Response Curve Data (NanoBRET signal, replicates) (Concentration 7.50E-07 M): 7.22 and 6.99 and 7.34 and 6.94; NanoBRET binding, result in words: improving from the IC50 of UM_228 by one order of magnitude"
0%,0%,Cc1[nH]ccc1C(=O)NC1CCC(N2C(=O)CCC2=O)CC1 (centres unmarked) [UM_211],–
21.7%,47.7%,Cc1nc2c(sc3nc(N4CCOCC4)c4c(c32)CC(C)(C)OC4)c(=O)o1 [UM_225],–
0%,14.7%,Cc1cc(NC(=O)[C@@H]2CCO[C@H]2c2nccn2C)nnc1C [UM_221],–
5.53%,55.3%,Clc1nc(-c2cccnc2)nc2sc3c(c12)CCCC3 [UM_209],–
3.26%,30.8%,Cc1cc(C)n2nc(SCc3cc(=O)n4cc(Br)ccc4n3)nc2n1 [UM_201],–
2.86%,51%,N#Cc1cnc(Sc2nnc(C3CCCCC3)o2)cn1 [UM_256],–
27.2%,62.3%,Cn1cnnc1SCc1nc(N)c2c3c(sc2n1)CCCC3 [UM_214],–
18%,33.3%,CN(CC(=O)NC(C)(C)C)Cn1nc2c3c(cccc31)C(=O)c1ccccc1-2 [UM_224],–
0%,17.7%,COc1ccc2c(O)c(C(=O)N(C)Cc3c(C)noc3C)cnc2c1 [UM_200],–
56.7%,91.5%,"O=C(COc1ccc2c3c(c(=O)oc2c1)CCCCC3)N1CCc2ccccc21 [UM_213, 3-[2-(2,3-dihydro-1H-indol-1-yl)-2-oxoethoxy]-6H,7H,8H,9H,10H,11H-cyclohepta [c]chromen-6-one]","IC50: 9.49 µM; Dose-Response Curve Data (NanoBRET signal, replicates) (Concentration 1.20E-05 M): 7.35 and 7.43 (2×); Dose-Response Curve Data (NanoBRET signal, replicates) (Concentration 1.50E-06 M): 8.59 and 8.87 and 8.44; Dose-Response Curve Data (NanoBRET signal, replicates) (Concentration 1.88E-07 M): 8.66 and 8.93 and 8.52; Dose-Response Curve Data (NanoBRET signal, replicates) (Concentration 2.40E-05 M): 6.31 and 6.47 and 6.34; Dose-Response Curve Data (NanoBRET signal, replicates) (Concentration 3.00E-06 M): 8.12 and 8.73 and 8.41; Dose-Response Curve Data (NanoBRET signal, replicates) (Concentration 3.75E-07 M): 8.92 and 8.51 and 8.71; Dose-Response Curve Data (NanoBRET signal, replicates) (Concentration 6.00E-06 M): 8.04 and 8.33 and 8.32; Dose-Response Curve Data (NanoBRET signal, replicates) (Concentration 7.50E-07 M): 8.68 and 8.62 and 8.88"

# Source: article PMC10249896, “AI-Assisted chemical probe discovery for the understudied Calcium-Calmodulin Dependent Kinase, PNCK” (PLOS Computational Biology, 2023)
